These results are taken from ChEMBL document CHEMBL1201862, “PubChem BioAssay data set” (2004).

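Where inhibition never reached the appropriate level, the endpoint shown equals the highest concentration tested. Otherwise, values were interpolated linearly from a five-concentration, 48-hour dose response in 96-well plates. GI50 marks 50% less growth.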 Calls of active or inactive are those of the source. Rule as the data show it: active = GI50 up to about 1.1 µM and inactive = higher.

Holding throughout (experiment): growth of human tumour cells (NCI), 48 h
Assay [1] relates to HCC 2998.
Assay [2] concerns HL-60.
The test system of assay [3] is 786-0.
Assay [4] relates to UACC-257.
The test system of assay [5] is KM12.
Assay [6] deals with SK-MEL-28.
Assay [7] has as its system SW-620.
Assay [8] has as its system SK-MEL-5.
For assay [9], the system named is SK-MEL-2.
The test system of assay [10] is SF-268.
The subject of assay [11] is M14.
Assay [12] concerns KM-20L2.
The subject of assay [13] is MOLT-4.
Assay [14] deals with HCT-15.
The subject of assay [15] is SNB-19.
Assay [16] deals with U-251.
Assay [17] relates to ACHN.
Assay [18] concerns A549.
In assay [19] the test system is DU-145.

With `C=C(CN(C)C)C(=O)c1ccc(C(=O)C(=C)CN(C)C)cc1`, the GI50 in assay [1], in assay [2], in assay [3], in [4], in assay [5] and in assay [6] was > 100 µM (inactive) each time. Moreover, the GI50 in assay [7], in assay [8], in assay [9], in [10], in [11] and in [12] was > 100 µM (inactive) in each case. Also, the GI50 in [13] is > 100 µM (inactive); in assay [14], greater than 100 µM; in [15] it was > 100 µM (inactive); in assay [16] it was > 100 µM (inactive); in assay [17] it was > 100 µM (inactive); in [18] it was 35.2 µM (inactive). The GI50 in [19] was > 100 µM (inactive).

For the molecule `Cc1ccc(S(=O)(=O)c2c3nc4ccccc4nc3n3c2[nH]c2ccccc23)cc1`, the GI50 is > 100 µM (inactive) in [1]; > 100 µM (inactive) in [2]; > 100 µM (inactive) in [3]; > 100 µM (inactive) in [4]; 58.1 µM (inactive) in assay [5]; > 100 µM (inactive) in assay [6]. Also, the GI50 in assay [7], in assay [8], in [9], in assay [10], in assay [11] and in assay [12] was > 100 µM (inactive) each time. For the same molecule, the GI50 in assay [13] is > 100 µM (inactive); in [14], greater than 100 µM; in [15] it was > 100 µM (inactive); in assay [16] it was > 100 µM (inactive); in assay [17], > 100 µM (inactive); in assay [18], > 100 µM (inactive).

On to `CC(=O)Oc1cc2c(=O)oc3c(OC(C)=O)c(OC(C)=O)c(OC(C)=O)c4c(=O)oc(c1OC(C)=O)c2c34`, for which the GI50 in assay [1] is > 100 µM (inactive); in assay [2], 56 µM (inactive); in assay [3], 38 µM (inactive); in assay [4] it was 45.5 µM (inactive); in assay [5], > 100 µM (inactive); in assay [6] it was 32.7 µM (inactive). The GI50 was 34.5 µM (inactive) in [7]; 61.1 µM (inactive) in assay [8]; 28.8 µM (inactive) in assay [9]; 48.4 µM (inactive) in [10]; 36.6 µM (inactive) in [11]; 35.3 µM (inactive) in assay [12]. The GI50 is 58.7 µM (inactive) in [13]; greater than 100 µM in assay [14]; 73.8 µM (inactive) in [15]; 36.6 µM (inactive) in assay [16]; 48.3 µM (inactive) in [17]; > 100 µM (inactive) in assay [18].

Take `CC1(C)OC(=S)N(c2ccccc2)C12C=Cc1cc3ccccc3nc1S2` (stereo not drawn): the GI50 is > 100 µM (inactive) in [1]; 40.9 µM (inactive) in assay [2]; > 100 µM (inactive) in [3]; > 100 µM (inactive) in [4]; > 100 µM (inactive) in [5]; > 100 µM (inactive) in assay [6]. The GI50 in assay [7] is > 100 µM (inactive); in [8], 56.9 µM (inactive); in [9] it was > 100 µM (inactive); in [10] it was > 100 µM (inactive); in assay [11], > 100 µM (inactive); in assay [12], > 100 µM (inactive). Besides, the GI50 in assay [13] is 26.9 µM (inactive); in assay [14], greater than 100 µM; in assay [15] it was > 100 µM (inactive); in assay [16], > 100 µM (inactive); in assay [17] it was > 100 µM (inactive); in assay [18], > 100 µM (inactive).
